Reference: patent publication US7001903B2, “Synergistic insecticidal mixtures” (Bayer Aktiengesellschaft, priority 1999, dated 2006)

Assays:
Type in all cases: in vivo
Myzus persicae = experiment: Critical concentration test, foliar insecticidal activity against sucking pests (leaf dip, cabbage); conditions: Myzus persicae on cabbage
Excerpt: Activity of Folia-Insecticidal Formulations Against Sucking Pests
The insecticidal activity was examined using the critical concentration test. From each of the test preparations, an aqueous dilution series is made by diluting the individual concentrations by the factor 5.
To determine any synergistic activity, weakly active concentrations of chloronicotinyl compounds are combined with various active compound concentrations of Tracer (Spinosad).
The test plants used are cabbage plants at the one-leaf stage which are infested by Myzus persicae (green peach aphid). The shoots or leaves with the aphids are dipped for approximately 3 seconds into the respective liquors. The experiments are subsequently placed in a greenhouse at 21° C. and 65% relative atmospheric humidity.
Evaluation for mortality is carried out after 2 and 7 days.

[1] = tested on: Phaedon cochleariae larvae; experiment: Critical concentration test / root-systemic action (cabbage, soil treatment)
Procedure: (§1) Critical Concentration Test/Root-Systemic Action
To produce a suitable preparation of active compound, 1 part by weight of active compound is mixed with the stated amount of solvent, the stated amount of emulsifier is added and the concentrate is diluted with water to the desired concentration.
The active compound preparation is mixed intimately with soil. The concentration of the active compound in the preparation is of virtually no importance, only the amount by weight of active compound per unit volume of soil, which is given in ppm (=mg/l), being decisive. The treated soil is filled into 500 ml pots, 8 cabbage seeds are placed at a depth of approximately 1 cm, the hole is filled and the soil surface is pressed down gently.
After a further 3 days, the test is evaluated by estimating the leaf-feeding in the treated and in the untreated plant. The effect is 100% if, compared with the untreated control, only […] feeding damage is observed; it is 0% when the entire cabbage has been eaten.

Aphis fabae = experiment: Critical concentration test / root-systemic action (broad beans, soil treatment); conditions: 0.035 ppm in soil
Procedure: as §1
To produce a suitable preparation of active compound, 1 part by weight of active compound is mixed with a stated amount of solvent, the stated amount of emulsifier is added and the concentrate is diluted with water to the desired concentration.
The active compound preparation is mixed intimately with soil. The concentration of the active compound in the preparation is of virtually no importance, only the amount by weight of active compound per unit volume of soil, which is given in ppm (=mg/l), being decisive. The treated soil is filled into 250 ml pots and the pots are planted with pre-germinated broad beans. In this manner, the active compound can be taken up from the soil by the roots of the plants and transported into the leaves.
After a further 7 days, the test is evaluated by estimating the dead animals. The root-systemic effect of the active compound is deduced from the destruction figures. It is 100% when all the test animals have been killed and 0% when just as many test insects are still alive as in the untreated control.

[2] = compound (III) alone 0.00016% a.i., evaluation after 2 days
[3] = compound (III) alone 0.00016% a.i., evaluation after 7 days
[4] = compound (III) alone 0.0008% a.i., evaluation after 2 days
[5] = compound (III) alone 0.0008% a.i., evaluation after 7 days

Row | SMILES | kill (Myzus persicae; [2]) [%] | kill (Myzus persicae; [3]) [%] | kill (Myzus persicae; [4]) [%] | kill (Myzus persicae; [5]) [%] | Degree of destruction in % at active compound concentrations ([1]; 2.50 ppm in soil) [ppm = 0%] | Degree of destruction in % at active compound concentrations (Aphis fabae) [ppm = 50%] | Degree of destruction in % at active compound concentrations ([1]; 1.25 ppm in soil) [ppm = 0%] | Degree of destruction in % at active compound concentrations ([1]; 5.00 ppm in soil) [ppm = 0%] | Degree of destruction in % at active compound concentrations ([1]; 0.30 ppm in soil)
1 | N#C/N=C1\SCCN1Cc1ccc(Cl)nc1 [Compound (III l)] | 8 | 0 | 85 | 38 | 2.50 | – | – | – | –
2 | O=[N+]([O-])/N=C1\NCCN1Cc1ccc(Cl)nc1 [Compound (IIIa)] | 18 | 2 | 90 | 78 | – | 0.035 | 1.25 | – | –
3 | C/C(=N\C#N)N(C)Cc1ccc(Cl)nc1 [Compound (IIIe)] | – | – | – | – | – | – | – | 5.00 | –
4 | CN1COCN(Cc2cnc(Cl)s2)/C1=N/[N+](=O)[O-] [Compound (IIIg)] | 0 | 0 | 79 | 70 | – | – | – | – | 0.30 ppm = 50%
5 | CN/C(=N\[N+](=O)[O-])NCc1cnc(Cl)s1 [Compound (IIIk)] | 10 | 2 | 48 | 28 | – | – | – | – | 0.30 ppm = 0%
